Data on seven compounds can be found in patent publication US6417197B1, “Acylated n-hydroxy methyl thalidomide prodrugs with immunomodulator action” (Gruenenthal GmbH, priority 1996, dated 2002).

A word on the IC50: it is the concentration needed to halve the response being measured. Usually solubility stands for the dissolved amount per volume that the medium holds. Lower therefore signals little dissolved substance. One may read the melting point as the temperature of the solid-liquid transition.

≈ marks a conversion by molar mass, not a printed value.

One series has as its system release of TNF-α. Put plainly: LPS-induced release of TNF-α in human mononuclear cells of the peripheral blood (ELISA). Particulars: LPS stimulation; for inhibition at 50 µg/mL: read-out: Inhibition of the release of TNF-α at a final concentration of 50 μg/ml; for IC50: Homo sapiens, linear regression line, read-out: IC50 (50% inhibition of the release of TNF-α). In kind it is cell-based. The protocol: The release of TNF-α was investigated in vitro on human mononuclear cells of the peripheral blood (T cells, B cells and monocytes), after stimulation with lipopolysaccharide (LPS). LPS is a constituent of the bacterial cell wall and stimulates monocytes and macrophages.
Mononuclear cells were obtained from the heparin-treated blood of at least three volunteer donors. For this purpose, 20 ml blood in each case were separated by known methods via a Ficoll-Paque gradient, and the cells were harvested and washed three times with a cell culture medium. The cell culture medium which was used consisted of RPMI 1640 medium, supplemented with 2 mM glutamine (Life Technologies, Eggenstein), 10% foetal calf serum (Life Technologies), […] streptomycin (Sigma, Deisenhofen), 50 IU/ml penicillin (Sigma, Deisenhofen) and 100 μM β-mercaptoethanol (Merck, Darmstadt). The mononuclear cells were subsequently taken up in 15 ml cell culture medium and were divided into 1 ml batches in sterile 24-hole incubation plates (Sigma) 1 μl dimethylsulphoxide (DMSO, Merck) was added to the 1 ml batches which were used as the control batch. 1 μl of a solution of a compound according to the invention (in DMSO; final concentration in the test: 0.5; 5; 12.5 and 50 μg/ml) was added to the test batches. The batches were incubated for one hour in a CO2 incubation cabinet (5% CO2, 90% atmospheric humidity). 2.5 μg LPS (from E. coli 0127: B8, Sigma, Deisenhofen) was subsequently added as a stimulant to each batch with the exception of the control batches. Incubation of the cultures was continued for 20 hours. Following the incubation, the concentration of TNF-α in the cell culture supernatant liquors was determined by ELISA tests (Boehringer Mannheim).
A general note: In an ELISA, binding on a coated surface is turned into a signal by an enzyme label.

In a further series the test system is serum IL-2. The series can be described thus: SEB-induced increase in serum IL-2 in galactosamine-pretreated balb/c mice. Format: in vivo. The settings on record: 30 minutes before SEB; for Max. inhibition of the increase in serum IL-2 at a dose of 400 mg/kg: 400 mg/kg intraperitoneally, IL-2 2 hours after SEB, balb/c mice.
The conditions of series [1]: for solubility in water, corresponding thalidomide amount: thalidomide equivalent of the water solubility; for solubility: water, 25 °C.
The conditions of series [2]: Arch. Pharm. 321, 371 (1988); cited from earlier work.
The mark [3] stands for this setting: 50 μg/ml, 20 hours, human mononuclear cells.

For the compound `CC(C)(C)OC(=O)NCC(=O)OCN1C(=O)CCC(N2C(=O)c3ccccc3C2=O)C1=O` (stereo not shown) [Compound 1, N-t-butyl oxycarbonyl-2-aminoacetic acid-[3-(1,3-dihydro-1,3-dioxo-2H-isoindol-2-yl)-2,6-dioxopiperidin-1-yl]methyl ester], in the series with release of TNF-α (setting [3]), the inhibition at 50 µg/mL amounted to 78%. Besides, in the series with release of TNF-α, the IC50 is 2.7 µg/mL (≈ 6.06 µM). The “Max. inhibition of the increase in serum IL-2 at a dose of 400 mg/kg” value (shortened to “Max. inhibition of the increase”) in the series with serum IL-2 is given as 34%.

In the case of `Cl.NCC(=O)OCN1C(=O)CCC(N2C(=O)c3ccccc3C2=O)C1=O` (stereo not shown) [Compound 2, 2-aminoacetic acid-[3-(1,3-dihydro-1,3-dioxo-2H-isoindol-2-yl)-2,6-dioxo-piperidin-1-yl]methyl ester hydrochloride], the inhibition at 50 µg/mL with release of TNF-α (setting [3]) was determined as 54%. Further, in series [1], the “solubility in water, corresponding thalidomide amount” value (“solubility in water” for short) is 33.6 mg thalidomide/ml and the solubility is 497 mg/mL. Besides, the “Max. inhibition of the increase” value in the series on serum IL-2 is 68%. In addition, in the series with serum IL-2 (intraperitoneal, regression line), the “ED40 (dose giving 40% reduction in serum IL-2 concentrations)” value came out at 230 mg/kg.

`CNC(C)C(=O)OCN1C(=O)CCC(N2C(=O)c3ccccc3C2=O)C1=O.Cl` (stereo not shown) [Compound 4, 2-m ethylaminopropionic acid-[3-(1,3-dihydro-1,3-dioxo-2H-isoindol-2-yl)-2,6-dioxopiperidin-1-yl]methyl ester hydrochloride] gave a melting point of 147 to 151 °C. In series [1], the “solubility in water” value is given as more than 190 mg thalidomide/ml and the solubility was more than 300 mg/mL. For the same compound, the “Max. inhibition of the increase” value with serum IL-2 was 26%.

On to `CC(C)C(N)C(=O)OCN1C(=O)CCC(N2C(=O)c3ccccc3C2=O)C1=O.Cl` (stereo not shown) [Compound 6, 2-amino-3-methylbutyric acid-[3-(1,3-dihydro-1,3-dioxo-2H-isoindol-2-yl)-2,6-dioxopiperidin-1-yl]methyl ester hydrochloride], for which the melting point was 145 to 150 °C. The inhibition at 50 µg/mL in the series with release of TNF-α (setting [3]) was found to be 97%. Also, the IC50 in the series with release of TNF-α came to 2 µg/mL. In series [1], the “solubility in water” value is on record as more than 190 mg thalidomide/ml and the solubility was more than 300 mg/mL. Besides, in the series with serum IL-2, the “Max. inhibition of the increase” value came out at 52%.

For the compound `Cl.NCC(=O)NCC(=O)OCN1C(=O)CCC(N2C(=O)c3ccccc3C2=O)C1=O` (stereo not shown) [Compound 8, 2-(aminomethylcarbonylamino) acetic acid-[3(1,3-dihydro-1,3-dioxo-2H-isoindol-2-yl)-2,6-dioxo-piperidin-1-yl]methyl ester hydrochloride], in series [1], the “solubility in water” value is more than 190 mg thalidomide/ml and the solubility is more than 300 mg/mL.

For `O=C1CCC(N2C(=O)c3ccccc3C2=O)C(=O)N1` (stereo not shown) [thalidomide], in series [2], the “solubility of thalidomide in water” value is 0.012 mg/mL.

As for “[3-(1,3-dihydro-1,3-dioxo-2H-isoindol-2-yl)-2,6-dioxo-piperidin-1-yl]-methoxycarbonylpropionic acid [Compound 9]”, the “Inhibition of the release of TNF-α at a final concentration of 50 μg/ml” value with release of TNF-α (setting [3]) was determined as 35%.
